Data reported in patent US20240293514A1, “PHARMACEUTICAL COMPOSITIONS COMPRISING GLP-1R AGONISTS” (4MOVING BIOTECH, priority 2021, published 2024).
Marks after values point to notes of the source that are not given here.

Columns and labels:
Type in all cases: in vivo, SD rats
[1] = test system: MIA-induced model of osteoarthritis and inflammatory pain in rats; experiment: Electronic and equivalent von Frey scores normalized to vehicle group (Example 7)
Protocol: Allodynia in rats following OA induction on day 1 was evaluated on day 2 and on day 7 using both Electronic (for cycle 1) and von Frey filaments (for cycle 2). Both tests are reliable and valid for the assessment of the mechanical sensitivity in the ipsilateral hind paw of rats. Additionally, von Frey filament score can be transposed approximately to an equivalent electronic von Frey score (theorical pressure in grams/mm^2). To assure the obtained results, we performed a test using both von Frey filaments and Electronic von Frey apparatus on three rats from three different groups (31M, 32M and 37M).
Equivalent electronic von Frey score was calculated using the “Aesthesio Precision Tactile sensory data chart” from the results obtained with von Frey filaments. Thus, to have a more representative vision of the results obtained in previous experiments using the electronic von Frey apparatus, we combine both the electronic von Frey scores obtained from Cycle 1 (Day 2 and 7) and the equivalent score calculated from the results obtained with the von Frey filaments for Cycle 1 (from day 10) and Cycle 2.

[2] = test system: MIA-induced model of osteoarthritis and inflammatory pain in rats; experiment: Electronic von Frey test, various GLP-1R agonists, MIA-induced model (Example 7, cycle 1)
Protocol: (§1) Seven groups comprising 8 SD rats per group were allocated for this study performed in 2 cycles (4 SD rats/cycle). Chemically-induced OA disease was performed on six out of seven groups by injecting intra-articularly (IA) in the right knee joint 3 mg of MIA in 30 μL on day 1. The control group (sham/vehicle control) received 30 μL of saline IA in the right knee joint. […] All groups 31M-37M received 1 IA injection of either saline (group 31M) or MIA (groups 32M to 37M) on day 1 and the treatment injection on day 3. During the study, body weight measurements (twice a week) and von Frey tests using electronic von Frey apparatus (on day 2, 7, for C1) and von Frey filaments (on day 10, 18, 24 and 30 for Cl, and on day 2, 7, 10, 18, 24 and 30 for C2) were performed. Group allocation was performed on day 2, based on von Frey results. Knee harvesting was performed for optional analyses at study termination at day 32.
(§2) A solution comprising dulaglutide is prepared from the product Trulicity®. Trulicity® is a commercial dulaglutide drug. Trulicity® is supplied as a “ready to use” solution at 4.5 mg/0.50 mL. It will be diluted in the appropriate volume of vehicle (NaCl 0.9%) for injection into knee joint of 270 μg in 30 μL per rat for group 33M.
(§3) Bydureon® is supplied as a “ready to use” solution at 2 mg/0.65 mL. It will be diluted in the appropriate volume of vehicle (NaCl 0.9%) for injection into knee joint of 92.31 μg in 30 μL per rat for group 34M.
(§4) Bydureon Bcise® is supplied as a “ready to use” solution at 2.35 mg/mL. It will be diluted in the appropriate volume of vehicle (NaCl 0.9%) for injection into knee joint of 70.6 μg in 30 μL per rat for group 35M.
(§5) A solution comprising lixisenatide is prepared from the product Adlyxin®. Adlyxin® is a commercial lixisenatide drug. Adlyxin® is supplied as a “ready to use” solution at 100 μg/mL. It will be diluted in the appropriate volume of vehicle (NaCl 0.9%) for injection into knee joint of 3 μg in 30 μL per rat for group 36M.
(§6) It will be diluted in the appropriate volume of vehicle (NaCl 0.9%) for injection into knee joint of 180 μg in 30 μL per rat for group 37M.
(§7) 56 male SD rats aged 9 weeks were anesthetized via a chamber induction technique using inhalation anesthesia (Isoflurane at 5%). During the procedure, the animal was maintained under Isoflurane at a level between 1.5 and 3% with an air flow rate of 1-2 liters/minute. After induction of anesthesia, the right hind limb skin surface was clipped free of hair using electric animal clippers. After shaving, the area surrounding the knee joint was wiped with alcohol. A volume of 30 μL containing 3 mg MIA was injected intra-articularly (IA) in the knee joint through the patellar tendon. A 29-gauge, 0.5-inch needle that fitted with cannulation tubing was used such that only 3 to 4 mm of the needle was allowed to puncture the joint. After injection, the knee was massaged to ensure even distribution of the solution. Animals were injected once on day 1 (groups 32M, 33M, 34M, 35M, 36M, 37M). For group 31M (sham control), 30 μL of injectable saline was injected into knee joint.
(§8) Von Frey test in the rats following MIA injection was conducted according to 4P-Pharma's proceedings “Mechanical Neuropathic Pain Evaluation (electronic Von Frey)” and to 4P-Pharma's proceedings “Mechanical Neuropathic Pain Evaluation (Von Frey)”. Rats were placed individually in the designated transparent Plexiglas chambers and allowed to acclimate for 10-15 min. Withdrawal response to mechanical stimulation was determined using electronic von Frey apparatus (BIO-EVF5, Bioseb) with a 0.5 mm diameter tip placed on the stimulator handle applied from underneath the cage through openings (12×12 mm) in the plastic mesh floor or with von Frey filaments (Bio-VF-M, Bioseb). The withdrawal response in gram-force for each rat was calculated from three trials for von Frey apparatus and once with von Frey filaments.

[3] = test system: MIA-induced model of osteoarthritis and inflammatory pain in rats; experiment: Von Frey filaments test, various GLP-1R agonists, MIA-induced model (Example 7)
Protocol: as §1, §2, §3, §4, §5, §6, §7, §8

[4] = 180 μg IA once on day 3, D2 (baseline before treatment)
[5] = 270 μg IA once on day 3, D2 (baseline before treatment)
[6] = 3 μg IA once on day 3, D2 (baseline before treatment)

## liraglutide
[1]; 180 μg IA (group 37M), at day 10, level maintained for 20 days
  von Frey score normalized to vehicle group (31M): 70%
[2]; [4]
  right paw withdrawal threshold, Electronic von Frey (mean): 32.88 grams
[2]; 180 μg IA once on day 3, D7
  right paw withdrawal threshold, Electronic von Frey (mean): 63.60 grams
[3]; [4]
  right paw withdrawal threshold, von Frey filaments (mean): 1.60^$$$ grams
[3]; 180 μg IA once on day 3, D7
  right paw withdrawal threshold, von Frey filaments (mean): 8.00*** grams
[3]; 180 μg IA once on day 3, D10
  right paw withdrawal threshold, von Frey filaments (mean): 9.63*** grams
[3]; 180 μg IA once on day 3, D18
  right paw withdrawal threshold, von Frey filaments (mean): 11.63*** grams
[3]; 180 μg IA once on day 3, D24
  right paw withdrawal threshold, von Frey filaments (mean): 10.25*** grams
[3]; 180 μg IA once on day 3, D30
  right paw withdrawal threshold, von Frey filaments (mean): 9.00*** grams

## dulaglutide
[2]; [5]
  right paw withdrawal threshold, Electronic von Frey (mean): 30.03 grams
[2]; 270 μg IA once on day 3, D7
  right paw withdrawal threshold, Electronic von Frey (mean): 50.98 grams
[3]; [5]
  right paw withdrawal threshold, von Frey filaments (mean): 2.28^$$$ grams
[3]; 270 μg IA once on day 3, D7
  right paw withdrawal threshold, von Frey filaments (mean): 2.85 grams
[3]; 270 μg IA once on day 3, D10
  right paw withdrawal threshold, von Frey filaments (mean): 4.75*** grams
[3]; 270 μg IA once on day 3, D18
  right paw withdrawal threshold, von Frey filaments (mean): 6.50*** grams
[3]; 270 μg IA once on day 3, D24
  right paw withdrawal threshold, von Frey filaments (mean): 7.00*** grams
[3]; 270 μg IA once on day 3, D30
  right paw withdrawal threshold, von Frey filaments (mean): 8.25*** grams

## lixisenatide
[1]; 3 μg IA (group 36M), raised to and kept
  von Frey score normalized to vehicle group (31M): 60%
[2]; [6]
  right paw withdrawal threshold, Electronic von Frey (mean): 33.55 grams
[2]; 3 μg IA once on day 3, D7
  right paw withdrawal threshold, Electronic von Frey (mean): 55.15 grams
[3]; [6]
  right paw withdrawal threshold, von Frey filaments (mean): 1.30^$$$ grams
[3]; 3 μg IA once on day 3, D7
  right paw withdrawal threshold, von Frey filaments (mean): 5.00** grams
[3]; 3 μg IA once on day 3, D10
  right paw withdrawal threshold, von Frey filaments (mean): 7.63*** grams
[3]; 3 μg IA once on day 3, D18
  right paw withdrawal threshold, von Frey filaments (mean): 7.75*** grams
[3]; 3 μg IA once on day 3, D24
  right paw withdrawal threshold, von Frey filaments (mean): 7.25*** grams
[3]; 3 μg IA once on day 3, D30
  right paw withdrawal threshold, von Frey filaments (mean): 8.88*** grams
